Reference: US12043827B2, “Compositions, systems, and methods for base diversification” (Pairwise Plants Services, Inc., priority 2020, dated 2024)
Entries after “also recorded” stand apart in the source; their conditions may differ.

Experiments:
Assay type in all cases: cell-based
[1] = biological target: T1, APE1 (Homo sapiens, UniProt P27695); experiment: APE1 inhibitor effect on base diversification and indels, AID or pmCDA1 fused to Cas9 nickase (D10A), HTS in HEK293T cells; conditions: 100 μM and 200 μM, 3 d
T1 construct: endogenous in cells; host or cells: HEK293T
Procedure: APE1 was inhibited by using CRT0044876 (Scheme 1), which is a potent and well-known APE1 inhibitor.
To ascertain whether this compound improves base diversification profile, HEK293T cells were treated with AID or pmCDA1 fused to Cas9 nickase (D10A) in the presence of CRT0044876. After 3 d, the cells were harvested and analyzed through high-throughput sequencing (HTS).

[2] = system: endogenous loci; experiment: Transversion mutations from adenine: ABE7.10 with inosine glycosylases (fusion or in trans), HTS in HEK293T cells; conditions: all conditions that used ABE7.10, 3 days
Source text: The experiment was designed to generate transversion mutations from adenines by promoting inosines to undergo the same cellular DNA repair pathways that generate transversion mutations during translesion-bypass polymerization in cytosine base editing. While not wishing to be bound to any particular theory, it was hypothesized that the key step was to facilitate the glycosylation of inosines generated during adenine base editing. It was hypothesized that once glycosylated, the resulting abasic site can be a substrate for translesion-bypass repair and that this would lead to transversion mutations. Exogenous inosine glycosylases were provided along with ABE to promote inosine glycosylation.
Several inosine glycosylases were screened in HEK293T cells and it was determined whether they were capable of acting on inosines generated by ABE. If inosine is converted into an abasic site, and subsequently repaired through translesion-bypass polymerization, transversion mutations can be generated from adenines.
Five different glycosylases from various species were selected for testing. The following genes were codon-optimized and cloned into a mammalian expression vector, either as unfused gene, or as a C-terminal fusion to ABE7.10 (species source in parenthesis); hMPG (Homo sapiens) having an amino acid sequence of SEQ ID NO:84, mMPG (Mus musculus) having an amino acid sequence of SEQ ID NO:83, rMPG (Rattus norvegicus) having an amino acid sequence of SEQ ID NO:80, SpThp1 (Schizosaccharomyces pombe) having an amino acid sequence of SEQ ID NO:79, MaHDG (Methanosarcina acetivorans) having an amino acid sequence of SEQ ID NO:81, and MbHDG (Methanosarcina barkeri) having an amino acid sequence of SEQ ID NO:82. […] The HEK293T cells were transfected with a plasmid encoding gRNA targeting endogenous loci and either the fusion plasmid or a mixture of plasmids expressing ABE7.10 and the above inosine glycosylases. After 3 days, high-throughput sequencing was used to determine the editing result of targeted adenines. Mock transfection (using pUC19) was used to set baseline editing. All conditions that used ABE7.10 generated 10-20% guanine transition, as expected.

[3] = system: HEK2 genomic site; experiment: Adenine base editing with inosine glycosylases, HEK2 site (FIGS. 7A-7C); conditions: all conditions that used ABE
Source text: FIGS. 7A-7C are graphs showing adenine base editing results for a HEK2 genomic site. Adenines in the target window were diversified into cytosine and thymine. All conditions that used ABE generated ˜10-20% guanine mutation, as expected. FIG. 7A is a graph providing the results for inosine glycosylase fusion constructs. FIG. 7B is a graph providing the results for inosine glycosylases provided in trans and overexpressed in the cell. FIG. 7C is a graph showing the amount of indels generated by the constructs.
(§1) Five different glycosylases from various species were selected for testing. The following genes were codon-optimized and cloned into a mammalian expression vector, either as unfused gene, or as a C-terminal fusion to ABE7.10 (species source in parenthesis); hMPG (Homo sapiens) having an amino acid sequence of SEQ ID NO:84, mMPG (Mus musculus) having an amino acid sequence of SEQ ID NO:83, rMPG (Rattus norvegicus) having an amino acid sequence of SEQ ID NO:80, SpThp1 (Schizosaccharomyces pombe) having an amino acid sequence of SEQ ID NO:79, MaHDG (Methanosarcina acetivorans) having an amino acid sequence of SEQ ID NO:81, and MbHDG (Methanosarcina barkeri) having an amino acid sequence of SEQ ID NO:82. […]

[4] = system: FANCF genomic site; experiment: Adenine base editing with inosine glycosylases, FANCF site (FIGS. 8A-8C); conditions: all conditions that used ABE
Source text: FIGS. 8A-8C are graphs showing adenine base editing results for a FANCF genomic site. Adenines in the target window were diversified into cytosine and thymine. All conditions that used ABE generated ˜10-20% guanine mutation, as expected. FIG. 8A is a graph providing the results for inosine glycosylase for fusion constructs. FIG. 8B is a graph providing the results for inosine glycosylases provided in trans and overexpressed in the cell. […] is a graph showing the amount of indels generated by the constructs.
as §1

[5] = system: Sites 1-4 (SEQ ID NO:131-134); experiment: Fusion architecture for adenine diversifiers (ABE8.20m N- or C-terminal glycosylase fusions), HTS in HEK293T cells; conditions: four guide RNAs, 3 days, FIG. 9
Procedure: Several glycosylase domains were fused to either the N-terminus or C-terminus of ABE8.20m (SEQ ID NO:57). For the N-terminal fusions to ABE8.20m, the deaminase was between the glycosylase domain and CRISPR-Cas effector protein, and, for the C-terminal fusions to ABE8.20m, the CRISPR-Cas effector protein was between the glycosylase domain and deaminase. Three putative inosine glycosylases were tested, which are: hMPG, a methylpurine glycosylase (MPG) from Homo sapiens (SEQ ID NO:84, UniProtKB—P29372); mMPG from Mus musculus (SEQ ID NO:83, UniProtKB—Q04841); and SpThp1, a known uracil DNA glycosylase that also has activity towards inosine, from Schizosaccharomyces pombe (SEQ ID NO:79, UniProtKB—O59825) (Alseth et al. Nucleic Acids Research 2005, 33(3) 1123-1131).
The following plasmids were transfected into HEK293T cells: a plasmid encoding ABE8.20m or a fusion protein including ABE8.20m fused to one of the above inosine glycosylases, and a plasmid encoding a guide RNA. […] Four guide RNAs were tested corresponding to the following four target nucleic acids (i.e., sites): Site 1: […] (SEQ ID NO:131), Site 2: […] (SEQ ID NO:132), Site 3: […] (SEQ ID NO:133), and Site 4: […] (SEQ ID NO:134). After three days, the editing efficiency was measured by high throughput sequencing of targeted loci.

[6] = system: several genomic sites in HEK293T cells (target nucleic acid of SEQ ID NO:132); experiment: Deaminase screen for base diversification, MCP-deaminase recruited to Cas9 nickase (D10A), HTS in HEK293T cells; conditions: MCP fusion recruited to Cas9 nickase (D10A) by 2xMS2 gRNA, no UGI, FIG. 4
Procedure: They were fused to MCP (MS2 […]) at the N-terminus, and recruited towards Cas9 nickase (D10A) by using gRNA fused to 2×MS2 hairpins. They were assayed against several genomic sites in HEK293T cells. Base conversion profiles were analyzed by high-throughput sequencing and the results are shown in FIG. 4 for the target nucleic acid of SEQ ID NO:132.
AP endonuclease I (APE1) is an enzyme within the base excision repair pathway that cleaves the phosphodiester bond at the abasic site, generating a nick in the base-edited strand. […] In constructs lacking UGI, base diversification is usually accompanied with indels. For example, in all target sites described above, about 5-20% of products contain indels, which lowers the efficiency of base diversification (FIG. 5).

[7] = system: spacer sequence corresponding to SEQ ID NO:131; experiment: SunTag recruitment system for adenine base diversifier / reduced Cas9 binding affinity, HTS in HEK293T cells; conditions: scFv-TadA8.20m-GB1 or scFv-TadA8e-GB1, glycosylase overexpressed in trans, FIGS. 10 and 11
Source text: Different forms of Cas9 were expressed in HEK293T cells, which were: nCas9(D10A) (SEQ ID NO:36), dCas9-SunTag (SEQ ID NO:135), nCas9(D10A)-SunTag (SEQ ID NO:136), and enCas9(D10A)-SunTag (SEQ ID NO:137), along with a SunTag-antibody-fused adenine deaminase, with a GB1 solubility tag at the C-terminus, having a sequence of SEQ ID NO:138 or SEQ ID NO:139. An inosine glycosylase, which was hMPG (SEQ ID NO:84), mMPG (SEQ ID NO:83), or SpThp1 (SEQ ID NO:79) was overexpressed in trans. The glycosylase was not actively recruited, but was expressed in the cell at the same time as the Cas9 and deaminase.
In an attempt to reduce the Cas9 DNA binding affinity to a target nucleic acid, Cas9 having mutated amino acid residues that may interact with the target nucleic acid were used. Without being limited to any particular theory, the thought was that this would facilitate the dissociation of Cas9 from the target nucleic acid once adenine is converted to inosine; thus, providing greater access for inosine glycosylase. Specifically, enCas9(D10A) (SEQ ID NO:39) contains two mutations that reduce DNA binding affinity compared to nCas9(D10A) (Halperin et al. Nature 2018 560(7717):248-252). The effect of the mutations in the context of SunTag-mediated adenine diversification were tested. […]
After three days, the editing efficiency was measured by high throughput sequencing of targeted loci. […]

[8] = system: Sites 1-4 (SEQ ID NO:131-134); experiment: Truncation of inosine glycosylase regulatory domain, hMPG vs thMPG fusions to ABE8.20m; conditions: N- and C-terminus fusions to ABE8.20m, four sites, FIG. 12
Source text: Methylpurine glycosylase (MPG) usually contains two domains. The catalytic domain of MPG is necessary for excising inosine from DNA (Hollis, Lau, Ellenberger. Mutation Research 2000, 460, 201-210). Without being bound to any particular theory, in an effort to reduce the size of MPG, potentially allow for better inosine access to the catalytic domain, and potentially improve the solubility of the fusion complex, the N-terminus of MPG was truncated.
In this experiment, both N-terminus and C-terminus fusions of hMPG to ABE8.20m (SEQ ID NO:57) were tested with a truncated variant of hMPG (thMPG) (SEQ ID NO:85). Four different target nucleic acids were tested, which were: Site 1: […] (SEQ ID NO:131), Site 2: […] (SEQ ID NO:132), Site 3: […] (SEQ ID NO:133), and Site 4: […] (SEQ ID NO:134).

T1 sequence (P27695 whole entry, the tested form may be a part): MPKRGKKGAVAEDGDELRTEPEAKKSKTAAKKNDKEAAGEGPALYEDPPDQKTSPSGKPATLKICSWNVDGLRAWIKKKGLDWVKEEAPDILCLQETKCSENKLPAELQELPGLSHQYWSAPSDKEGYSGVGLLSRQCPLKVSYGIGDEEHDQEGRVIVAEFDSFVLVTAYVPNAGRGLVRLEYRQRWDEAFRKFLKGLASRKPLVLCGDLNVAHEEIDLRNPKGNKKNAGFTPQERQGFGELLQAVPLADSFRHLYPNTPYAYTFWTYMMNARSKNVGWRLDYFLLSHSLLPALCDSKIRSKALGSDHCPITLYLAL

O=C(O)c1cc2cccc([N+](=O)[O-])c2[nH]1 [CRT0044876]
base diversification rate ([1]; FIGS. 6A and 6C): some decrease in base diversification rate was also observed | amount of indel generated ([1]; multiple target sites, FIGS. 6B and 6D): significant decrease in the amount of indel generated across multiple target sites; also recorded: reduces the rate of indel mutations

ABE7.10: adenine base editor, unfused ABE7.10 having amino acid sequence of SEQ ID NO:55
guanine transition of targeted adenines [2]: 10-20% | guanine mutation [3]: 10-20% | guanine mutation [4]: 10-20%

ABE8.20m: adenine base editor, SEQ ID NO:57, without glycosylase domain
A to C or T change of target adenine [5]: negligible A to C or T change

APOBEC3A: cytosine deaminase fused to MCP, recruited towards Cas9 nickase (D10A) by gRNA with 2×MS2 hairpins
conversion of C into G, T, and A within the base editing window [6]: robustly converts C into G, T, and A nucleotides within the base editing window

nCas9(D10A)-SunTag: Cas9 nickase (D10A) fused to SunTag, SEQ ID NO:136
A to C or T editing [7]: increase in A to C or T editing compared to expression of nCas9(D10A) without SunTag

B1: thMPG: truncated variant of hMPG, SEQ ID NO:85, fused to ABE8.20m (protein, listed as Homo sapiens)
chain: KGHLTRLGLEFFDQPAVPLARAFLGQVLVRRLPNGTELRGRIVETEAYLGPEDEAAHSRGGRQTPRNRGMFMKPGTLYVYIIYGMYFCMNISSQGDGACVLLRALEPLEGLETMRQLRSTLRKGTASRVLKDRELCSGPSKLCQALAINKSFDQRDLAQDEAVWLERGPLEPSEPAVVAAARVGVGHAGEWARKPLRFYVRGSPWVSVVDRVAEQDTQA
adenine conversion to C or T activity, truncated vs full-length MPG [8]: no observed decrease in activity and, in some cases, there was an observed increase in adenine conversion to C or T

B2: APOBEC1: cytosine deaminase fused to MCP, recruited towards Cas9 nickase (D10A) by gRNA with 2×MS2 hairpins (protein, listed as Rattus norvegicus)
chain: SSETGPVAVDPTLRRRIEPHEFEVFFDPRELRKETCLLYEINWGGRHSIWRHTSQNTNKHVEVNFIEKFTTERYFCPNTRCSITWFLSWSPCGECSRAITEFLSRYPHVTLFIYIARLYHHADPRNRQGLRDLISSGVTIQIMTEQESGYCWRNFVNYSPSNEAHWPRYPHLWVRLYVLELYCIILGLPPCLNILRRKQPQLTFFTIALQSCHYQRLPPHILWATGLK
conversion of C into G, T, and A within the base editing window [6]: robustly converts C into G, T, and A nucleotides within the base editing window
